Measured values published in patent US11597919B2, “Systems, methods and compositions for sequence manipulation with optimized functional CRISPR-Cas systems” (The Broad Institute, Inc., priority 2013, dated 2023).

What was measured:
[1] = tested on: A375 melanoma cell line (BRAF V600E); details: cited from earlier work
HEK 293FT cells = experiment: Nuclease and double-nicking activity of potential nickases, SURVEYOR analysis (Example 10); assay type: cell-based, human; details: 400 ng nickase, 100 ng sgRNA
Method: Nuclease and double-nicking activities for all potential nickases were tested in HEK 293FT cells as follows: co-transfection of 400 ng of nickase and 100 ng of U6-driven sgRNA (100 ng for one guide, or 50 ng each for a pair of sgRNAs) by Lipofectamine 2000 into ˜200,000 cells. DNAs from transfected cells were collected for SURVEYOR analysis.

RNA = details: cited from earlier work
human EMX1 locus [2] = experiment: Surveyor assay for genome modification at the human EMX1 locus in HEK 293FT cells; assay type: cell-based; details: co-expression with EMX1-targeting chimeric crRNA; n=3
Method: Cells were transfected using Lipofectamine 2000 (Life Technologies) following the manufacturer's recommended protocol. For each well of a 24-well plate a total of 800 ng of plasmids were used.
Genomic DNA was extracted using the QuickExtract DNA extraction kit (Epicentre) following the manufacturer's protocol. […] Extracted genomic DNA was immediately processed or stored at −20° C.
The genomic region surrounding a CRISPR target site for each gene was PCR amplified, and products were purified using QiaQuick Spin Column (Qiagen) following manufacturer's protocol. A total of 400 ng of the purified PCR products were mixed with 2 μl 10× Taq polymerase PCR buffer (Enzymatics) and ultrapure water to a final volume of 20 μl, and subjected to a re-annealing process to enable heteroduplex formation: 95° C. for 10 min, 95° C. to 85° C. ramping at −2° C./s, 85° C. to 25° C. at −0.25° C./s, and 25° C. hold for 1 minute. After re-annealing, products were treated with Surveyor nuclease and Surveyor enhancer S (Transgenomics) following the manufacturer's recommended protocol, and analyzed on 4-20% Novex TBE poly-acrylamide gels (Life Technologies). Gels were stained with SYBR Gold DNA stain (Life Technologies) for 30 minutes and imaged with a Gel Doc gel imaging system (Bio-rad). Quantification was based on relative band intensities, as a measure of the fraction of cleaved DNA.

human EMX1 locus [3] = experiment: Sequencing of amplicons containing the EMX1 target locus; assay type: cell-based; details: 327 amplicons
Method: HEK 293FT or N2A cells were transfected with plasmid DNA as described above. After transfection, the cells were incubated at 37° C. for 72 hours before genomic DNA extraction. Genomic DNA was extracted using the QuickExtract DNA extraction kit (Epicentre) following the manufacturer's protocol. Briefly, cells were resuspended in QuickExtract solution and incubated at 65° C. for 15 minutes and 98° C. for 10 minutes. Extracted genomic DNA was immediately processed or stored at −20° C.
Since DSBs in mammalian nuclei are partially repaired by the non-homologous end joining (NHEJ) pathway, which leads to the formation of indels, the Surveyor assay was used to detect potential cleavage activity at the target EMX1 locus (FIG. 7) (see e.g. Guschin et al., 2010, Methods Mol Biol 649: 247). Co-transfection of all four CRISPR components was able to induce up to 5.0% cleavage in the protospacer (see FIG. 2D). […] Removing any of the remaining three components abolished the genome cleavage activity of the CRISPR system (FIG. 2D). Sanger sequencing of amplicons containing the target locus verified the cleavage activity: in 43 sequenced clones, 5 mutated alleles (11.6%) were found. Similar experiments using a variety of guide sequences produced indel percentages as high as 29% (see FIGS. 3-6, 10, and 11).

[4] = tested on: target DNA with 5′-NGG PAM; experiment: Cleavage of target DNA bearing 5′-NGG PAM by PI domain chimeras (Example 12); assay type: cell-based, human; details: 5′-GGGCT
Method: Cells were transfected using Lipofectamine 2000 (Life Technologies) at 70-80% confluency following the manufacturer's recommended protocol.
Genomic DNA was extracted using the QuickExtract DNA Extraction Solution (Epicentre) following the manufacturer's protocol.
400 ng total of the purified PCR products were mixed with 2 μl 10× Taq DNA Polymerase PCR buffer (Enzymatics) and ultrapure water to a final volume of 20 μl, and subjected to a re-annealing process to enable heteroduplex formation: 95° C. for 10 min, 95° C. to 85° C. ramping at −2° C./s, 85° C. to 25° C. at −0.25° C./s, and 25° C. hold for 1 min. After re-annealing, products were treated with SURVEYOR nuclease and SURVEYOR enhancer S (Transgenomics) following the manufacturer's recommended protocol, and analyzed on 4-20% Novex TBE poly-acrylamide gels (Life Technologies). Gels were stained with SYBR Gold DNA stain (Life Technologies) for 30 min and imaged with a Gel Doc gel imaging system (Bio-rad). Quantification was based on relative band intensities. Indel percentage was determined by the formula, 100×(1−(1−(b+c)/(a+b+c))^1/2), where a is the integrated intensity of the undigested PCR product, and b and c are the integrated intensities of each cleavage product.

Molecule: CCCS(=O)(=O)Nc1ccc(F)c(C(=O)c2c[nH]c3ncc(Cl)cc23)c1F [PLX4720]
- sensitivity of cell line to BRAF inhibitor [1]: naturally sensitive

Molecule: Cbh-hSpCas9(D10A)-NLS: SpCas9 RuvCI mutant D10A, homology set
- Functional? (HEK 293FT cells): nickase activity

Molecule: Cbh-hSpCas9(H840A)-NLS: SpCas9 HNH mutant H840A, homology set
- Functional? (HEK 293FT cells): no activity

Molecule: N55K mutant: N55K mutant of the MS2 bacteriophage coat protein
- binding affinity (RNA): higher binding affinity than wild type MS2

Molecule: SpCas9n: SpCas9 with aspartate-to-alanine substitution (D10A) in the RuvC I catalytic domain, a nickase
- indels at the EMX1 protospacer target (human EMX1 locus [2]): does not generate indels
- indels detected by sequencing (human EMX1 locus [3]): did not detect any indels

B1: Sp-St3Cas9: SpCas9 with the PI domain of St3Cas9, SEQ ID NO: 121 (protein)
chain: MDYKDHDGDYKDHDIDYKDDDDKMAPKKKRKVGIHGVPAADKKYSIGLDIGTNSVGWAVITDEYKVPSKKFKVLGNTDRHSIKKNLIGALLFDSGETAEATRLKRTARRRYTRRKNRICYLQEIFSNEMAKVDDSFFHRLEESFLVEEDKKHERHPIFGNIVDEVAYHEKYPTIYHLRKKLVDSTDKADLRLIYLALAHMIKFRGHFLIEGDLNPDNSDVDKLFIQLVQTYNQLFEENPINASGVDAKAILSARLSKSRRLENLIAQLPGEKKNGLFGNLIALSLGLTPNFKSNFDLAEDAKLQLSKDTYDDDLDNLLAQIGDQYADLFLAAKNLSDAILLSDILRVNTEITKAPLSASMIKRYDEHHQDLTLLKALVRQQLPEKYKEIFFDQSKNGYAGYIDGGASQEEFYKFIKPILEKMDGTEELLVKLNREDLLRKQRTFDNGSIPHQIHLGELHAILRRQEDFYPFLKDNREKIEKILTFRIPYYVGPLARGNSRFAWMTRKSEETITPWNFEEVVDKGASAQSFIERMTNFDKNLPNEKVLPKHSLLYEYFTVYNELTKVKYVTEGMRKPAFLSGEQKKAIVDLLFKTNRKVTVKQLKEDYFKKIECFDSVEISGVEDRFNASLGTYHDLLKIIKDKDFLDNEENEDILEDIVLTLTLFEDREMIEERLKTYAHLFDDKVMKQLKRRRYTGWGRLSRKLINGIRDKQSGKTILDFLKSDGFANRNFMQLIHDDSLTFKEDIQKAQVSGQGDSLHEHIANLAGSPAIKKGILQTVKVVDELVKVMGRHKPENIVIEMARENQTTQKGQKNSRERMKRIEEGIKELGSQILKEHPVENTQLQNEKLYLYYLQNGRDMYVDQELDINRLSDYDVDHIVPQSFLKDDSIDNKVLTRSDKNRGKSDNVPSEEVVKKMKNYWRQLLNAKLITQRKFDNLTKAERGGLSELDKAGFIKRQLVETRQITKHVAQILDSRMNTKYDENDKLIREVKVITLKSKLVSDFRKDFQFYKVREINNYHHAHDAYLNAVVGTALIKKYPKLESEFVYGDYKVYDVRKMIAKSEQEIGKATAKYFFYSNIMNFFKTEITLANGEIRKRPLIETNGETGEIVWDKGRDFATVRKVLSMPQVNIVKKTVEEQNHGLDRGKPKGLFNANLSSKPKPNSNENLVGAKEYLDPKKYGYGGYAGISNSFTVLVKGTIEKGAKKKITNVLEFQGISILDRINYRKDKLNFLLEKGYKDIELIIELPKYSLFELSDGSRRMLASILSTNNKRGEIHKGNQIFLSQKFVKLLYHAKRISNTINENHRKYVENHKKEFEELFYYILEFNENYVGAKKNGKLLNSAFQSWQNHSIDELCSSFIGPTGSERKGLFELTSRGSAADFEFLGVKIPRYRDYTPSSLLKDATLIHQSVTGLYETRIDLAKLGEGKRPAATKKAGQAKKKK
- cleavage of target DNA with 5′-NGG PAM [4]: retained cleavage activity for the target DNA with 5′-NGG PAM, albeit at a lower level than that of SpCas9

B2: St3-SpCas9: St3Cas9 with the PI domain of SpCas9, SEQ ID NO: 122 (protein)
chain: MAPKKKRKVGIHGVPAAMTKPYSIGLDIGTNSVGWAVTTDNYKVPSKKMKVLGNTSKKYIKKNLLGVLLFDSGITAEGRRLKRTARRRYTRRRNRILYLQEIFSTEMATLDDAFFQRLDDSFLVPDDKRDSKYPIFGNLVEEKAYHDEFPTIYHLRKYLADSTKKADLRLVYLALAHMIKYRGHFLIEGEFNSKNNDIQKNFQDFLDTYNAIFESDLSLENSKQLEEIVKDKISKLEKKDRILKLFPGEKNSGIFSEFLKLIVGNQADFRKCFNLDEKASLHFSKESYDEDLETLLGYIGDDYSDVFLKAKKLYDAILLSGFLTVTDNETEAPLSSAMIKRYNEHKEDLALLKEYIRNISLKTYNEVFKDDTKNGYAGYIDGKTNQEEEDFYVYLKKLLAEFEGADYFLEKIDREDFLRKQRTFDNGSIPYQIHLQEMRAILDKQAKFYPFLAKNKERIEKILTFRIPYYVGPLARGNSDFAWSIRKRNEKITPWNFEDVIDKESSAEAFINRMTSFDLYLPEEKVLPKHSLLYETFNVYNELTKVRFIAESMRDYQFLDSKQKKDIVRLYFKDKRKVTDKDIIEYLHAIYGYDGIELKGIEKQFNSSLSTYHDLLNIINDKEFLDDSSNEAIIEEIIHTLTIFEDREMIKQRLSKFENIFDKSVLKKLSRRHYTGWGKLSAKLINGIRDEKSGNTILDYLIDDGISNRNFMQLIHDDALSFKKKIQKAQIIGDEDKGNIKEVVKSLPGSPAIKKGILQSIKIVDELVKVMGGRKPESIVVVVEMARENQYTNQGKSNSQQRLKRLEKSLKELGSKILKENIPAKLSKIDNNALQNDRLYLYYLQNGKDMYTGDDLDIDRLSNYDIDHIIPQAFLKDNSIDNKVLVSSASNRGKSDDVPSLEVVKKRKTFWYQLLKSKLISQRKFDNLTKAERGGLSPEDKAGFIQRQLVETRQITKHVARLLDEKFNNKKDENNRAVRTVKIITLKSTLVSQFRKDFELYKVREINDFHHAHDAYLNAVVASALLKKYPKLEPEFVYGDYPKYNSFRERKSATEKVYFYSNIMNIFKKSISLADGRVIERPLIEVNEETGESVWNKESDLATVRRVLSYPQVNVVKKTEVQTGGFSKESILPKRNSDKLIARKKDWDPKKYGGFDSPTVAYSVLVVAKVEKGKSKKLKSVKELLGITIMERSSFEKNPIDFLEAKGYKEVKKDLIIKLPKYSLFELENGRKRMLASAGELQKGNELALPSKYVNFLYLASHYEKLKGSPEDNEQKQLFVEQHKHYLDEIIEQISEFSKRVILADANLDKVLSAYNKHRDKPIREQAENIIHLFTLTNLGAPAAFKYFDTTIDRKRYTSTKEVLDATLIHQSITGLYETRIDLSQLGGDKRPAATKKAGQAKKKK
- cleavage of target DNA with 5′-NGG PAM [4]: cleaved
